Experimental data from PubChem BioAssay (NCI).
≈ marks a conversion by molar mass, not a printed value. Where “and” joins values, the source holds several entries; their conditions need not be identical. Identical values can stand only once.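 Compound exposure: 48 hours, 5 concentrations, 96-well plates. GI50 is the concentration that inhibits growth by half. At the TGI there is no net growth.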

Key:
Test in all cases: NCI anticancer screen, dose series, 48 h
DU-145 prostate = test system: DU-145 prostate
MCF7 breast = test system: MCF7 breast
MDA-MB-435 = test system: MDA-MB-435
MDA-N = test system: MDA-N
DMS 273 small cell lung = test system: DMS 273 small cell lung
LXFL 529 NSCLC = test system: LXFL 529 NSCLC
M19-MEL melanoma = test system: M19-MEL melanoma
XF 498 CNS = test system: XF 498 CNS

Work on `O=C1CCC(c2ccccc2)(c2ccccc2)CC1` yielded a TGI (DU-145 prostate) greater than 100 µM, a TGI (MCF7 breast) greater than 100 µM and a TGI (MDA-MB-435) greater than 100 µM. For the same molecule, the TGI (MDA-N) was greater than 100 µM.

With `CCNC1=CC(=O)c2ncccc2C1=O` the GI50 (DU-145 prostate) was 1.18 µM, the TGI (DU-145 prostate) was 2.44 µM and the GI50 (MCF7 breast) was 1.17 µM. It also gave a TGI (MCF7 breast) of 3.2 µM, a GI50 (MDA-MB-435) of 0.4 µM and a TGI (MDA-MB-435) of 1.5 µM.

Molecule `CCOc1ccc(N2C(N)=NC(N)=NC2(C)C)cc1` has a GI50 (DU-145 prostate) of 71.9 µM, a TGI (DU-145 prostate) greater than 100 µM and a GI50 (MCF7 breast) greater than 100 µM. The TGI (MCF7 breast) was greater than 100 µM, the GI50 (MDA-MB-435) was 38.8 µM and the TGI (MDA-MB-435) was greater than 100 µM.

Molecule `Cn1cc(/C=C2\C(=O)Nc3cccnc32)c2ccccc21` has a GI50 (DU-145 prostate) of 18 µM, a TGI (DU-145 prostate) greater than 25 µM and a GI50 (MCF7 breast) of 8.04 µM. For the same molecule, the TGI (MCF7 breast) was greater than 25 µM, the GI50 (MDA-MB-435) was 18 µM and the TGI (MDA-MB-435) was greater than 25 µM.

`C1CCN2CC34CC(CC5CCCN(C6CCCC3N6)C54)C2C1` (stereo not given) was tested, and the TGI (DU-145 prostate) was greater than 100 µM, the TGI (MCF7 breast) was greater than 100 µM and the TGI (MDA-MB-435) was greater than 100 µM. For the same molecule, the TGI (MDA-N) was greater than 100 µM.

`NC(=O)c1ccc(NC(=O)c2oc3ccccc3c2-c2cnn(-c3ccccc3)c2)cc1` showed a GI50 (MCF7 breast) greater than 100 µM, a TGI (MCF7 breast) greater than 100 µM and a GI50 (MDA-MB-435) greater than 100 µM. The TGI (MDA-MB-435) was greater than 100 µM.

With `COS(=O)CCOC(=O)c1ccccc1SSc1ccccc1C(=O)OCCS(=O)OC` (stereo not given) the TGI (DMS 273 small cell lung) was greater than 100 µM, the TGI (LXFL 529 NSCLC) was 47.2 µM and the TGI (M19-MEL melanoma) was greater than 100 µM. It also gave a TGI (XF 498 CNS) of 62.8 µM.

For `CC(C)(C)c1ccc(C(O)(c2ccc(C(C)(C)C)cc2)c2ccc(C(C)(C)C)cc2)cc1`, the TGI (DU-145 prostate) was greater than 100 µM, the TGI (MCF7 breast) was greater than 100 µM and the TGI (MDA-MB-435) was greater than 100 µM. It also gave a TGI (MDA-N) greater than 100 µM.

With `C[C@H]1CC(=O)[C@@]2(O)C#C/C=C\C#C[C@@H]3Nc4c(cc(O)c5c4C(=O)c4ccccc4C5=O)[C@]24O[C@]314` the GI50 (DU-145 prostate) was 0.0025 µM, the GI50 (MCF7 breast) was 0.0025 µM and the TGI (MCF7 breast) was 0.247 µM and 0.895 µM. For the same molecule, the GI50 (MDA-MB-435) was 0.0196 µM, the TGI (MDA-MB-435) was 0.219 µM and 0.262 µM and the TGI (MDA-N) was 0.26 µM.

`Fc1cc(Nc2ccc3c(OCCCN4CCOCC4)cccc3n2)ccc1Cl` was tested, and the GI50 (DU-145 prostate) was 3.62 µM, the TGI (DU-145 prostate) was 13.1 µM and the GI50 (MDA-MB-435) was 2.05 µM. For the same molecule, the TGI (MDA-MB-435) was 4.83 µM.

Work on `COc1cc(C(=O)c2c(-c3ccccc3)oc3ccccc23)cc(OC)c1O` yielded a GI50 (DU-145 prostate) of 3.15 µM, a TGI (DU-145 prostate) of 13.6 µM and a GI50 (MCF7 breast) of 0.399 µM. It also gave a TGI (MCF7 breast) of 16 µM, a GI50 (MDA-MB-435) of 0.285 µM and a TGI (MDA-MB-435) of 0.777 µM.

`Cc1[nH]nc(C(=O)N/N=C/c2cccs2)c1N=NN(C)C` showed a TGI (DU-145 prostate) greater than 100 µM, a TGI (MCF7 breast) of 47.4 µM and a TGI (MDA-MB-435) of 57 µM.

`Cc1cc(I)cc(CN(C)CCCCN2CCCC2)c1O` was tested, and the GI50 (DU-145 prostate) was 35.8 µM, the TGI (DU-145 prostate) was greater than 100 µM and the GI50 (MCF7 breast) was 16.9 µM. It also gave a TGI (MCF7 breast) of 36.8 µM, a GI50 (MDA-MB-435) of 11.1 µM and a TGI (MDA-MB-435) of 27.9 µM.

`O=C(/C=C/c1cccs1)Nc1ncc(Cc2ccccc2F)s1` gave a GI50 (DU-145 prostate) of 0.3 µM, a TGI (DU-145 prostate) greater than 100 µM and a GI50 (MCF7 breast) of 0.318 µM. It also gave a TGI (MCF7 breast) greater than 100 µM, a GI50 (MDA-MB-435) of 0.0312 µM and a TGI (MDA-MB-435) of 0.113 µM.

Work on `Clc1cccc(C2SCc3nc4ccccc4n32)c1Cl` (stereo not given) yielded a TGI (DMS 273 small cell lung) of 32.1 µM, a TGI (LXFL 529 NSCLC) of 30.3 µM and a TGI (M19-MEL melanoma) of 29.6 µM. For the same molecule, the TGI (XF 498 CNS) was 29.9 µM.

In the case of `CCn1c(-c2cc3ccccc3cc2OC(=O)c2ccccc2)n[nH]c1=S`, the GI50 (DU-145 prostate) is reported as greater than 50 µM, the TGI (DU-145 prostate) is reported as greater than 50 µM and the GI50 (MCF7 breast) is reported as greater than 50 µM. The TGI (MCF7 breast) was greater than 50 µM, the GI50 (MDA-MB-435) was greater than 50 µM and the TGI (MDA-MB-435) was greater than 50 µM.

For `O=[N+]([O-])C(=C(c1ccccc1)c1ccccc1)[N+](=O)[O-]`, the TGI (DMS 273 small cell lung) was 22.5 µM and the TGI (LXFL 529 NSCLC) was 29.2 µM.

`CCc1ccc(/C=C2/SC(=S)NC2=O)cc1` gave a GI50 (DU-145 prostate) of 38.6 µM, a TGI (DU-145 prostate) greater than 100 µM and a GI50 (MCF7 breast) of 21.2 µM. For the same molecule, the TGI (MCF7 breast) was greater than 85.5 µM, the GI50 (MDA-MB-435) was 27.5 µM and the TGI (MDA-MB-435) was greater than 100 µM.

Molecule `C=C1C(=O)C23C(CC(OC(C)=O)C1[C@@H]2OC(C)=O)C1(C)C(OC(C)=O)CCC(C)(C)C1C[C@@H]3OC(C)=O` (stereo not given in full) has a TGI (DMS 273 small cell lung) of 3.07 µM, a TGI (LXFL 529 NSCLC) of 2.63 µM and a TGI (M19-MEL melanoma) of 3.16 µM.

`COc1cc(Nc2ncc(-c3ccccc3)o2)cc(OC)c1OC` was tested, and the GI50 (DU-145 prostate) was 5.98 µM, the TGI (DU-145 prostate) was greater than 25 µM and the GI50 (MCF7 breast) was 0.0695 µM. The TGI (MCF7 breast) was greater than 25 µM, the GI50 (MDA-MB-435) was 0.154 µM and the TGI (MDA-MB-435) was greater than 5.89 µM.

`NC(=NC1C2CC3CC(C2)CC1C3)Nc1ccc(I)cc1` (stereo not given) was tested, and the GI50 (DU-145 prostate) was 3.66 µM, the TGI (DU-145 prostate) was 12.6 µM and the GI50 (MCF7 breast) was 2.45 µM. The TGI (MCF7 breast) was 10.7 µM, the GI50 (MDA-MB-435) was 3.8 µM and the TGI (MDA-MB-435) was 13.6 µM.

`CC1=C[C@H]2C[C@@]3(C)O[C@@H]([C@]4(C)CC[C@H]([C@@H](C)C(=O)O)OO4)CC3C(C)(C)[C@H]2CC1` (stereo not given in full) showed a TGI (DMS 273 small cell lung) of 1.74 µM, a TGI (LXFL 529 NSCLC) of 1.9 µM and a TGI (M19-MEL melanoma) of 3.3 µM. For the same molecule, the TGI (XF 498 CNS) was 0.234 µM.

With `CC(Cl)CC(=O)Nc1ccc2c(c1)oc(=O)c1cc(NC(=O)CC(C)Cl)ccc12` (stereo not given) the GI50 (DU-145 prostate) was 15.1 µM, the TGI (DU-145 prostate) was 34.1 µM and the GI50 (MCF7 breast) was 7.9 µM. For the same molecule, the TGI (MCF7 breast) was 23.1 µM, the GI50 (MDA-MB-435) was 18.3 µM and the TGI (MDA-MB-435) was greater than 100 µM.

`O=C(Nc1ccc(-c2nc3ccc(NC(=O)c4ccc(Cl)cc4)cc3[nH]2)cc1)c1ccc(Cl)cc1` showed a GI50 (DU-145 prostate) of 2.43 µM, a TGI (DU-145 prostate) of 7.16 µM and a GI50 (MCF7 breast) of 1.23 µM. It also gave a TGI (MCF7 breast) of 4.91 µM, a GI50 (MDA-MB-435) of 2.36 µM and a TGI (MDA-MB-435) of 7.14 µM.

`CCn1cc(C2NC(=O)c3cc(F)ccc3N2)c2cccc(Cl)c21` (stereo not given) gave a GI50 (DU-145 prostate) of 0.379 µM, a TGI (DU-145 prostate) greater than 100 µM and a GI50 (MCF7 breast) of 0.0913 µM. The TGI (MCF7 breast) was greater than 100 µM, the GI50 (MDA-MB-435) was 0.0367 µM and the TGI (MDA-MB-435) was 0.142 µM.

Molecule `COCCn1cc(-c2csc(-c3c[nH]c4ccc(F)cc34)n2)c2cccnc21` has a GI50 (DU-145 prostate) of 18.8 µM, a TGI (DU-145 prostate) greater than 100 µM and a GI50 (MCF7 breast) of 2.09 µM. For the same molecule, the TGI (MCF7 breast) was greater than 100 µM, the GI50 (MDA-MB-435) was 0.89 µM and the TGI (MDA-MB-435) was 14.3 µM.

`COCCOC(=O)CCn1cc(F)c(=O)[nH]c1=O` gave a GI50 (DU-145 prostate) of 5.57 µg/mL, a TGI (DU-145 prostate) greater than 150 µg/mL and a GI50 (MCF7 breast) of 1.13 µg/mL. It also gave a TGI (MCF7 breast) greater than 150 µg/mL, a GI50 (MDA-MB-435) of 5.67 µg/mL and a TGI (MDA-MB-435) greater than 150 µg/mL. The GI50 (MDA-N) was 2.29 µg/mL (≈ 8.82 µM) and the TGI (MDA-N) was greater than 150 µg/mL.

With `O=C(N/N=C\c1cc(Cl)ccc1O)N/N=C/c1cc(Cl)ccc1O` the GI50 (DU-145 prostate) was greater than 100 µM, the TGI (DU-145 prostate) was greater than 100 µM and the GI50 (MCF7 breast) was 3.12 µM. The TGI (MCF7 breast) was greater than 100 µM, the GI50 (MDA-MB-435) was 1.36 µM and the TGI (MDA-MB-435) was greater than 100 µM.

For `COc1cc(C=NCC(=O)CSC(c2ccccc2)c2ccccc2)cc(OC)c1OC`, the GI50 (DU-145 prostate) was 40.8 µM, the TGI (DU-145 prostate) was greater than 100 µM and the GI50 (MCF7 breast) was 19.8 µM. For the same molecule, the TGI (MCF7 breast) was greater than 100 µM, the GI50 (MDA-MB-435) was 25.1 µM and the TGI (MDA-MB-435) was 80.2 µM.

For `CN(C)c1ccc(/C=N/Nc2ccc(-c3nc4ccccc4[nH]3)cc2)cc1`, the GI50 (DU-145 prostate) was 37.8 µM, the TGI (DU-145 prostate) was greater than 50 µM and the GI50 (MCF7 breast) was 8.44 µM. For the same molecule, the TGI (MCF7 breast) was 35.6 µM, the GI50 (MDA-MB-435) was 8.25 µM and the TGI (MDA-MB-435) was greater than 50 µM.

`O=C(O)c1oc2ccc([N+](=O)[O-])c3c2c1CCC3` was tested, and the TGI (DMS 273 small cell lung) was greater than 100 µM, the TGI (LXFL 529 NSCLC) was greater than 100 µM and the TGI (M19-MEL melanoma) was greater than 100 µM. For the same molecule, the TGI (XF 498 CNS) was greater than 100 µM.
